Test results: patent US6930075B1, “Fatty acid-based herbicidal composition” (priority 1990, dated 2005)

Test system: Radish Plants
Experiment: Greenhouse spray, phytotoxicity and mortality over time;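 on Phyto = Phytotoxicity (0–10 rating scale): 0 means no damage and 10 means plant death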
Type: in vivo
Details: for Mortality: plants died of 4
Protocol: Herbicidal treatments were applied using a spray chamber fitted with a TeeJet 8006E flat fan nozzle (available from Spraying Systems Co., Wheaton, Ill.), calibrated to spray at a volume of 60 gpa at 40 psi. Treatment solutions were freshly prepared for each experiment. […] M. et al, J. Wiley and Sons, 1975, pp. 119–120, 218.
In a greenhouse facility four plant species were grown in 5.5 cm square pots using a potting soil mix comprising peat, vermiculite, sand and 4-10-10 fertilizer. Water soluble 20-20-20 fertilizer was used as a supplement for the plants as required. The plant species used were corn, oats, radish and morningglory. The plants were selected for use based on uniformity and quality. The corn plants used were in the 3 to 4 leaf stage and two plants were present in each pot. The oats used were in the 2 to 4 leaf stage and four plants were present per pot. The radish plants used were in the 3 to 5 leaf stage and one plant was used per pot. The morningglory were in the 2 to 4 leaf stage with one plant per pot. After spraying with a herbicidal formulation, the pots were arranged in a randomized complete block design in sub-irrigated watering trays, and included a water-treated control treatment. Four replicates (pots) were used for each treatment.
Herbicidal treatments were applied and recorded as in Example 1.

`CCCCCCCCC(=O)[O-].[Na+]` [Sodium pelargonate] was tested, and the “Phyto = Phytotoxicity (0–10 rating scale)” value (“Phyto = Phytotoxicity” for short) (2 Days after Treatment) was 0, the Mortality (2 Days after Treatment) was 0 and the “Phyto = Phytotoxicity” value (4 Days after Treatment) was 0. The Mortality (4 Days after Treatment) was 0, the “Phyto = Phytotoxicity” value (7 Days after Treatment, listed as 0.1% C9 Na^+ Salt) was 0 and the “Phyto = Phytotoxicity” value (7 Days after Treatment, listed as 0.5% C9 Na^+ Salt) was 0. The “Phyto = Phytotoxicity” value (7 Days after Treatment, listed as 1.0% C9 Na^+ Salt) was 0.5, the Mortality (7 Days after Treatment) was 0 and the “Phyto = Phytotoxicity” value (9 Days after Treatment, listed as 0.1% C9 Na^+ Salt) was 0. The “Phyto = Phytotoxicity” value (9 Days after Treatment, listed as 0.5% C9 Na^+ Salt) was 0, the “Phyto = Phytotoxicity” value (9 Days after Treatment, listed as 1.0% C9 Na^+ Salt) was 0.5 and the Mortality (9 Days after Treatment) was 0. The “Phyto = Phytotoxicity” value (11 Days after Treatment, listed as 0.1% C9 Na^+ Salt) was 0, the “Phyto = Phytotoxicity” value (11 Days after Treatment, listed as 0.5% C9 Na^+ Salt) was 0 and the “Phyto = Phytotoxicity” value (11 Days after Treatment, listed as 1.0% C9 Na^+ Salt) was 0.5. For the same compound, the Mortality (11 Days after Treatment) was 0, the “Phyto = Phytotoxicity” value (16 Days after Treatment, listed as 0.1% C9 Na^+ Salt) was 0 and the “Phyto = Phytotoxicity” value (16 Days after Treatment, listed as 0.5% C9 Na^+ Salt) was 0. The “Phyto = Phytotoxicity” value (16 Days after Treatment, listed as 1.0% C9 Na^+ Salt) was 0.5, the Mortality (16 Days after Treatment) was 0 and the “Phyto = Phytotoxicity” value (18 Days after Treatment, listed as 0.1% C9 Na^+ Salt) was 0. For the same compound, the “Phyto = Phytotoxicity” value (18 Days after Treatment, listed as 0.5% C9 Na^+ Salt) was 0, the “Phyto = Phytotoxicity” value (18 Days after Treatment, listed as 1.0% C9 Na^+ Salt) was 0.5 and the Mortality (18 Days after Treatment) was 0. The “Phyto = Phytotoxicity” value (21 Days after Treatment, listed as 0.1% C9 Na^+ Salt) was 0, the “Phyto = Phytotoxicity” value (21 Days after Treatment, listed as 0.5% C9 Na^+ Salt) was 0 and the “Phyto = Phytotoxicity” value (21 Days after Treatment, listed as 1.0% C9 Na^+ Salt) was 0.5. The Mortality (21 Days after Treatment) was 0, the “Phyto = Phytotoxicity” value (23 Days after Treatment, listed as 0.1% C9 Na^+ Salt) was 0 and the “Phyto = Phytotoxicity” value (23 Days after Treatment, listed as 0.5% C9 Na^+ Salt) was 0. The “Phyto = Phytotoxicity” value (23 Days after Treatment, listed as 1.0% C9 Na^+ Salt) was 0.5, the Mortality (23 Days after Treatment) was 0 and the “Phyto = Phytotoxicity” value (25 Days after Treatment, listed as 0.1% C9 Na^+ Salt) was 0. The “Phyto = Phytotoxicity” value (25 Days after Treatment, listed as 0.5% C9 Na^+ Salt) was 0, the “Phyto = Phytotoxicity” value (25 Days after Treatment, listed as 1.0% C9 Na^+ Salt) was 0.5 and the Mortality (25 Days after Treatment) was 0. The “Phyto = Phytotoxicity” value (28 Days after Treatment, listed as 0.1% C9 Na^+ Salt) was 0, the “Phyto = Phytotoxicity” value (28 Days after Treatment, listed as 0.5% C9 Na^+ Salt) was 0 and the “Phyto = Phytotoxicity” value (28 Days after Treatment, listed as 1.0% C9 Na^+ Salt) was 0.5. For the same compound, the Mortality (28 Days after Treatment) was 0, the “Phyto = Phytotoxicity” value (30 Days after Treatment, listed as 0.1% C9 Na^+ Salt) was 0 and the “Phyto = Phytotoxicity” value (30 Days after Treatment, listed as 0.5% C9 Na^+ Salt) was 0. For the same compound, the “Phyto = Phytotoxicity” value (30 Days after Treatment, listed as 1.0% C9 Na^+ Salt) was 0.5, the Mortality (30 Days after Treatment) was 0 and the “Phyto = Phytotoxicity” value (32 Days after Treatment, listed as 0.1% C9 Na^+ Salt) was 0. For the same compound, the “Phyto = Phytotoxicity” value (32 Days after Treatment, listed as 0.5% C9 Na^+ Salt) was 0, the “Phyto = Phytotoxicity” value (32 Days after Treatment, listed as 1.0% C9 Na^+ Salt) was 0.5 and the Mortality (32 Days after Treatment) was 0. The “Phyto = Phytotoxicity” value (35 Days after Treatment, listed as 0.1% C9 Na^+ Salt) was 0, the “Phyto = Phytotoxicity” value (35 Days after Treatment, listed as 0.5% C9 Na^+ Salt) was 0 and the “Phyto = Phytotoxicity” value (35 Days after Treatment, listed as 1.0% C9 Na^+ Salt) was 0.5. For the same compound, the Mortality (35 Days after Treatment) was 0, the “Phyto = Phytotoxicity” value (42 Days after Treatment, listed as 0.1% C9 Na^+ Salt) was 0 and the “Phyto = Phytotoxicity” value (42 Days after Treatment, listed as 0.5% C9 Na^+ Salt) was 0. The “Phyto = Phytotoxicity” value (42 Days after Treatment, listed as 1.0% C9 Na^+ Salt) was 0.5, the Mortality (42 Days after Treatment) was 0 and the “Phyto = Phytotoxicity” value (46 Days after Treatment, listed as 0.1% C9 Na^+ Salt) was 0. For the same compound, the “Phyto = Phytotoxicity” value (46 Days after Treatment, listed as 0.5% C9 Na^+ Salt) was 0, the “Phyto = Phytotoxicity” value (46 Days after Treatment, listed as 1.0% C9 Na^+ Salt) was 0.5 and the Mortality (46 Days after Treatment) was 0. For the same compound, the “Phyto = Phytotoxicity” value (57 Days after Treatment, listed as 0.1% C9 Na^+ Salt) was 0, the “Phyto = Phytotoxicity” value (57 Days after Treatment, listed as 0.5% C9 Na^+ Salt) was 0 and the “Phyto = Phytotoxicity” value (57 Days after Treatment, listed as 1.0% C9 Na^+ Salt) was 0.5. It also gave a Mortality (57 Days after Treatment) of 0.
